This series is described as follows: solubility of L-tert-leucine in aqueous solutions. Type of series: physicochemical. The settings on record: 10° C.

SMILES strings stand for the structures.

On to `CC(C)(C)[C@H](N)C(=O)O` [L-tert-leucine], for which the “solubility in 1N aqueous hydrochloric acid solution” value (1N aqueous hydrochloric acid solution) was 20.4 wt %. The same compound returned a solubility in water (water) of 12.7 wt %.

(Values after US20050107473A1, “Process for producing tert-leucine” (AJINOMOTO CO. INC, priority 2002, published 2005).)
